Results on three compounds are retold here after patent publication US20250270707A1, “NON-TRIAZOLE IMIDAZOLINE AND AMIDE COMPOUNDS AND METHODS FOR INHIBITING CORROSION IN INDUSTRIAL WATER TREATMENT” (CHEMTREAT, INC., priority 2023, published 2025).

The nature of series [1]: Corrosion rate by LPR sweep, copper coupons in synthetic water, 50° C., 1 ppm free chlorine after 0.5 hrs (Examples 1 and 2). The following applies: for corrosion inhibition properties over the entire 18 hour period (in words): Example 2. The procedure: (§1) One liter samples of synthetic water were each dosed with the compositions in Table 1.
(§2) The apparatus used for the corrosion testing was a Gamry Multiport Corrosion Cell and Gamry Reference 600+potentiostat with multiplexor. Copper coupons (CDA110) were added to the sample cells containing neutral water (pH 7.5), and the cells were dosed with 50 ppm of scale inhibitor (co-polymer and 2-phosphonobutane-1,2,4-yricarboxylic acid) and heated to 50° C. and maintained at this temperature throughout the testing. The cells were continuously stirred at a speed of 350 rpm. A cylindrical working electrode was submerged into the test solutions, and an LPR sweep (linear polarization resistance) was performed every hour for 18 hours. After the 0.5 hrs mark, 1 ppm of free chlorine was dosed into the corrosion cell.
(§3) One liter samples of the synthetic water described above with respect to Example 1 were each dosed with the compositions in Table 5 and processed under conditions similar to Example 1.

A short description of series [2]: Cl2 demand in the corrosion cell test (Examples 1 and 2). The format is physicochemical. The method, then: as §1, §2, §3

On to `O=C([O-])C(O)[C@H](O)[C@@H](O)[C@H](O)[C@H](O)CO.[Na+]` (some centres unmarked) [Glucoheptonate, NaGlucoheptonate, reference compound], for which the “CR Average (10-18 hrs)” value in series [1] (5 ppm) was determined as 0.278 mpy. For the same compound, the “CR Peak” value in series [1] (5 ppm) was 2.670 mpy. Also, the corrosion rate worked out at 0.074 mpy in series [1] (5 ppm, 0 hrs); 2.670 mpy in series [1] (5 ppm, 1 hrs); 2.004 mpy in series [1] (5 ppm, 2 hrs); 1.238 mpy in series [1] (5 ppm, 3 hrs); 0.784 mpy in series [1] (5 ppm, 4 hrs); 0.536 mpy in series [1] (5 ppm, 5 hrs). The corrosion rate in series [1] (5 ppm, 6 hrs) is on record as 0.504 mpy; in series [1] (5 ppm, 7 hrs), 0.449 mpy; in series [1] (5 ppm, 8 hrs) it was 0.357 mpy; in series [1] (5 ppm, 9 hrs), 0.331 mpy; in series [1] (5 ppm, 10 hrs), 0.311 mpy; in series [1] (5 ppm, 11 hrs), 0.297 mpy. Moreover, the corrosion rate in series [1] (5 ppm, 12 hrs) is given as 0.288 mpy; in series [1] (5 ppm, 13 hrs) it was 0.280 mpy; in series [1] (5 ppm, 14 hrs) it was 0.274 mpy; in series [1] (5 ppm, 15 hrs) it was 0.269 mpy; in series [1] (5 ppm, 16 hrs) it was 0.267 mpy; in series [1] (5 ppm, 17 hrs) it was 0.260 mpy. Further, in series [1] (5 ppm, 18 hrs), the corrosion rate worked out at 0.257 mpy. Further, the “Cl2 Demand” value in series [2] (5 ppm) worked out at 0.5 mg/L.

Take `CCCCCCCCCCCCN(CCC(=O)[O-])CCC(=O)O.[Na+]` [SL, Sodium Lauriminodipropionate, reference compound]: the “CR Average (10-18 hrs)” value in series [1] (2 ppm) is 0.067 mpy. Besides, the “CR Peak” value in series [1] (2 ppm) was 0.932 mpy. Also, the corrosion rate in series [1] (2 ppm, 0 hrs) was 0.0368 mpy; in series [1] (2 ppm, 1 hrs), 0.9317 mpy; in series [1] (2 ppm, 2 hrs), 0.4889 mpy; in series [1] (2 ppm, 3 hrs), 0.3498 mpy; in series [1] (2 ppm, 4 hrs), 0.2185 mpy; in series [1] (2 ppm, 5 hrs), 0.1644 mpy. Besides, the corrosion rate amounted to 0.1286 mpy in series [1] (2 ppm, 6 hrs); 0.1128 mpy in series [1] (2 ppm, 7 hrs); 0.0992 mpy in series [1] (2 ppm, 8 hrs); 0.0910 mpy in series [1] (2 ppm, 9 hrs); 0.0854 mpy in series [1] (2 ppm, 10 hrs); 0.0779 mpy in series [1] (2 ppm, 11 hrs). In addition, the corrosion rate worked out at 0.0757 mpy in series [1] (2 ppm, 12 hrs); 0.0685 mpy in series [1] (2 ppm, 13 hrs); 0.0643 mpy in series [1] (2 ppm, 14 hrs); 0.0613 mpy in series [1] (2 ppm, 15 hrs); 0.0580 mpy in series [1] (2 ppm, 16 hrs); 0.0543 mpy in series [1] (2 ppm, 17 hrs). This compound had a corrosion rate in series [1] (2 ppm, 18 hrs) of 0.0536 mpy. Also, the “corrosion inhibition properties over the entire 18 hour period (in words)” value in series [1] (2 ppm) is given as “did not perform well”. Moreover, the “Cl2 Demand” value in series [2] (2 ppm) was found to be 0.7 mg/L.

Regarding `CCCCCCCCCCCC(=O)NCCN(CCOCC(=O)[O-])CC(=O)[O-].[Na+].[Na+]` [DLADAA, Disodium Lauroamphodiacetate], the “CR Average (10-18 hrs)” value in series [1] (2 ppm) turned out to be 0.036 mpy. In addition, the “CR Peak” value in series [1] (2 ppm) worked out at 0.392 mpy. In addition, the corrosion rate in series [1] (2 ppm, 0 hrs) was 0.0175 mpy; in series [1] (2 ppm, 1 hrs) it was 0.3923 mpy; in series [1] (2 ppm, 2 hrs), 0.3065 mpy; in series [1] (2 ppm, 3 hrs), 0.2159 mpy; in series [1] (2 ppm, 4 hrs), 0.1420 mpy; in series [1] (2 ppm, 5 hrs), 0.1385 mpy. The corrosion rate in series [1] (2 ppm, 6 hrs) was found to be 0.1059 mpy; in series [1] (2 ppm, 7 hrs) it was 0.0894 mpy; in series [1] (2 ppm, 8 hrs), 0.0705 mpy; in series [1] (2 ppm, 9 hrs) it was 0.0631 mpy; in series [1] (2 ppm, 10 hrs) it was 0.0512 mpy; in series [1] (2 ppm, 11 hrs), 0.0461 mpy. Also, the corrosion rate in series [1] (2 ppm, 12 hrs) is 0.0419 mpy; in series [1] (2 ppm, 13 hrs), 0.0378 mpy; in series [1] (2 ppm, 14 hrs) it was 0.0347 mpy; in series [1] (2 ppm, 15 hrs) it was 0.0304 mpy; in series [1] (2 ppm, 16 hrs), 0.0282 mpy; in series [1] (2 ppm, 17 hrs) it was 0.0262 mpy. The compound also came in with a corrosion rate in series [1] (2 ppm, 18 hrs) of 0.0242 mpy. The “corrosion inhibition properties over the entire 18 hour period (in words)” value in series [1] (2 ppm) is “good corrosion inhibition properties”. In series [2] (2 ppm), the “Cl2 Demand” value was 0.7 mg/L.
